According to US8378104B2 (OSI Pharmaceuticals, LLC, priority 2010, dated 2013):
Counter-ions that a name gives are not always drawn.

Molecular target: T1, TAK1-TAB1 fusion protein (Homo sapiens, UniProt O43318)
T1 construct: purchased Carna
T1 sequence (O43318 with tags, fused parts or gaps limits assumed): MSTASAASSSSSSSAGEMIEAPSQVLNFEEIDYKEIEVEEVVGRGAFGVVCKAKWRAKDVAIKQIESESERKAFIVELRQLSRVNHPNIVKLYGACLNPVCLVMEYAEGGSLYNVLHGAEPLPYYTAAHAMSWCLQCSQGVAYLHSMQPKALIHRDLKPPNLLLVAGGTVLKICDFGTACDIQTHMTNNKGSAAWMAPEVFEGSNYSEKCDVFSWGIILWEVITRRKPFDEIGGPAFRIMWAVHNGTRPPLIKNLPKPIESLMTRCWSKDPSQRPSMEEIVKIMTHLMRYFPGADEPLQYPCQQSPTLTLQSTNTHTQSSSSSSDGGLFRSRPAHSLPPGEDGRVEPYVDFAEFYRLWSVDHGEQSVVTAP
Test: TAK1 biochemical assay (AlphaScreen, GST-MAP2K7 substrate)
Details: TAK1-TAB1 fusion protein, GST-MAP2K7 substrate; read-out: mean TAK1 IC50 (Col. A)

`CC(=O)N1CCC(n2cc(-c3cnc(N)c4oc(-c5ccc(-c6ccn[nH]6)cc5)cc34)cn2)CC1` [Example 128, 1-[4-(4-{7-amino-2-[4-(1H-pyrazol-5-yl)phenyl]furo[2,3-c]pyridin-4-yl}-1H-pyrazol-1-yl)piperidin-1-yl]ethanone] was tested, and the IC50 was 1 to 10 µM.

`CC(=O)N1CCC(n2cc(-c3cnc(N)c4oc(-c5cccc(CN)c5)cc34)cn2)CC1` [Example 178, 1-[4-(4-{7-amino-2-[3-(aminomethyl)phenyl]furo[2,3-c]pyridin-4-yl}-1H-pyrazol-1-yl)piperidin-1-yl]ethanone] gave an IC50 of 0.1 to 1 µM.

`Cc1nn(C[C@H](O)CO)cc1-c1cnc(N)c2oc(-c3csc4cnccc34)cc12` [Example 318, (S)-3-[4-(7-amino-2-thieno[2,3-d]pyridin-3-yl-furo[2,3-d]pyridin-4-yl)-3-methyl-pyrazol-1-yl]-propane-1,2-diol] was tested, and the IC50 was 1 to 10 µM.

Molecule `Nc1ncc(-c2ccsc2)c2cc(-c3csc4cnccc34)oc12` [Example 391, 2-(thieno[2,3-c]pyridin-3-yl)-4-(thiophen-3-yl)furo[2,3-c]pyridin-7-amine trifluoroacetate] has an IC50 of 1 to 10 µM.

In the case of `CC(=O)N1CCC(n2cc(-c3cnc(N)c4oc(-c5ccc(NS(C)(=O)=O)cc5)cc34)cn2)CC1` [Example 121, N-(4-{4-[1-(1-acetylpiperidin-4-yl)-1H-pyrazol-4-yl]-7-aminofuro[2,3-c]pyridin-2-yl}phenyl)methanesulfonamide], the IC50 is reported as 1 to 10 µM.

Work on `CC(=O)N1CCC(n2cc(-c3cnc(N)c4oc(-c5cccc(C(N)=O)c5)cc34)cn2)CC1` [Example 122, 3-{4-[1-(1-acetylpiperidin-4-yl)-1H-pyrazol-4-yl]-7-aminofuro[2,3-c]pyridin-2-yl}benzamide] yielded an IC50 of 0.1 to 1 µM.

`Nc1ncc(-c2cnn([C@H]3CC[C@H](O)CC3)c2)c2cc(-c3ccc4cn[nH]c4c3)oc12` [Example 406, trans-4-{4-[7-amino-2-(1H-indazol-6-yl)furo[2,3-c]pyridin-4-yl]-1H-pyrazol-1-yl}cyclohexanol] showed an IC50 of 0.1 to 1 µM.

`CC(=O)N1CCC(n2cc(-c3cnc(N)c4oc(-c5cnn(Cc6ccncc6)c5)cc34)cn2)CC1` [Example 151, 1-[4-(4-{7-amino-2-[1-(pyridin-4-ylmethyl)-1H-pyrazol-4-yl]furo[2,3-c]pyridin-4-yl}-1H-pyrazol-1-yl)piperidin-1-yl]ethanone] was tested, and the IC50 was 1 to 10 µM.

Molecule `Nc1ncc(-c2cnn(C3CCNCC3)c2)c2cc(-c3csc4ccccc34)oc12` [Example 19, 2-(1-benzothiophen-3-yl)-4-[1-(piperidin-4-yl)-1H-pyrazol-4-yl]furo[2,3-c]pyridine-7-amine] has an IC50 of 1 to 10 µM.

Molecule `Nc1ncc(-c2cnn([C@H]3CC[C@H](O)CC3)c2)c2cc(-c3cc(-c4cccc(F)c4)cc4nnsc34)oc12` [Example 369, trans-4-(4-{7-amino-2-[5-(3-fluorophenyl)-1,2,3-benzothiadiazol-7-yl]furo[2,3-c]pyridin-4-yl}-1H-pyrazol-1-yl)cyclohexanol] has an IC50 of 1 to 10 µM.

For `Nc1ncc(-c2cnn(C3CCNCC3)c2)c2cc(-c3cccc4ccsc34)oc12` [Example 17, 4-{4-[7-amino-2-(1-benzothiophen-7-yl)furo[2,3-c]pyridine-4-yl]-1H-pyrazol-1-yl}piperidine hydrochloride], the IC50 was 1 to 10 µM.

In the case of `Nc1ncc(-c2cnn(C3CCNCC3)c2)c2cc(-c3cncc4ccccc34)oc12` [Example 34, 2-(isoquinolin-4-yl)-4-[1-(piperidin-4-yl)-1H-pyrazol-4-yl]furo[2,3-c]pyridine-7-amine], the IC50 is reported as 1 to 10 µM.

`CS(=O)(=O)Nc1cccc(-c2cc3c(-c4cnn(C5CCNCC5)c4)cnc(N)c3o2)c1` [Example 23, N-(3-{7-amino-4-[1-(piperidin-4-yl)-1H-pyrazol-4-yl]furo[2,3-c]pyridine-2-yl}phenyl)methanesulfonamide] was tested, and the IC50 was 1 to 10 µM.

`CC(=O)N1CCC(n2cc(-c3cnc(N)c4oc(-c5cccc(OCc6ccccc6)c5)cc34)cn2)CC1` [Example 164, 1-[4-(4-{7-amino-2-[3-(benzyloxy)phenyl]furo[2,3-c]pyridin-4-yl}-1H-pyrazol-1-yl)piperidin-1-yl]ethanone] showed an IC50 greater than 10 µM.

Molecule `CC(=O)N1CCC(n2cc(-c3cnc(N)c4oc(-c5ccc(CC#N)cc5)cc34)cn2)CC1` [Example 179, (4-{4-[1-(1-acetylpiperidin-4-yl)-1H-pyrazol-4-yl]-7-aminofuro[2,3-c]pyridin-2-yl}phenyl)acetonitrile] has an IC50 of 1 to 10 µM.

`CC(=O)N1CCC(n2cc(-c3cnc(N)c4oc(-c5csc6cc(=O)n(C)cc56)cc34)cn2)CC1` [Example 258, 3-{4-[1-(1-acetylpiperidin-4-yl)-1H-pyrazol-4-yl]-7-aminofuro[2,3-c]pyridin-2-yl}-5-methylthieno[3,2-c]pyridin-6(5H)-one trifluoroacetic Acid Salt] was tested, and the IC50 was 1 to 10 µM.

In the case of `CC(=O)N1CCC(n2cc(-c3cnc(N)c4oc(C5=CCCC5)cc34)cn2)CC1` [Example 153, 1-(4-{4-[7-amino-2-(cyclopent-1-en-1-yl)furo[2,3-c]pyridin-4-yl]-1H-pyrazol-1-yl}piperidin-1-yl)ethanone], the IC50 is reported as 1 to 10 µM.

For `CC(=O)N1CCC(n2cc(-c3cnc(N)c4oc(-c5ccc6cn[nH]c6c5)cc34)cn2)CC1` [Example 99, 1-(4-{4-[7-amino-2-(1H-indazol-6-yl)furo[2,3-c]pyridin-4-yl]-1H-pyrazol-1-yl}piperidin-1-yl)ethanone], the IC50 was 0.1 to 1 µM.

For `Cn1cc(-c2cnc(N)c3oc(-c4ccccc4)cc23)cn1` [Example 56, 4-(1-methyl-1H-pyrazol-4-yl)-2-phenylfuro[2,3-d]pyridin-7-amine], the IC50 was greater than 10 µM.

`CC(=O)N1CCC(n2cc(-c3cnc(N)c4oc(-c5csc6c(=O)[nH]ccc56)cc34)cn2)CC1` [Example 257, 3-{4-[1-(1-acetylpiperidin-4-yl)-1H-pyrazol-4-yl]-7-aminofuro[2,3-c]pyridin-2-yl}thieno[2,3-c]pyridin-7(6H)-one trifluoroacetic Acid Salt] showed an IC50 of 1 to 10 µM.

For `Nc1ncc(-c2cnn([C@H]3CC[C@H](O)CC3)c2)c2cc(-c3cccc4ccsc34)oc12` [Example 232, trans-4-{4-[7-amino-2-(1-benzothiophen-7-yl)furo[2,3-c]pyridin-4-yl]-1H-pyrazol-1-yl}cyclohexanol diformate salt], the IC50 was 0.1 to 1 µM.

`CSc1nc2cccc(-c3cc4c(-c5cnn([C@H]6CC[C@H](O)CC6)c5)cnc(N)c4o3)c2s1` [Example 353, trans-4-(4-{7-amino-2-[2-(methylsulfanyl)-1,3-benzothiazol-7-yl]furo[2,3-c]pyridin-4-yl}-1H-pyrazol-1-yl)cyclohexanol Trifluoroacetate (Salt)] was tested, and the IC50 was 1 to 10 µM.

Work on `Nc1ncc(-c2cnn(C3CCNCC3)c2)c2c(Cl)c(-c3ccc4[nH]ccc4c3)oc12` [Example 14, 3-chloro-2-(1H-indol-5-yl)-4-[1-(piperidin-4-yl)-1H-pyrazol-4-yl]furo[2,3-c]pyridin-7-amine hydrochloride] yielded an IC50 of 1 to 10 µM.

`COc1c(-c2cnc(N)c3oc(-c4csc5cnccc45)cc23)cnn1C` [Example 344, 4-(5-methoxy-1-methyl-1H-pyrazol-4-yl)-2-thieno[2,3-c]pyridin-3-yl-furo[2,3-c]pyridin-7-ylamine] showed an IC50 of 0.1 to 1 µM.

In the case of `Cc1ccc(-c2cnc(N)c3oc(-c4csc5cnccc45)cc23)o1` [Example 387, 4-(5-methylfuran-2-yl)-2-(thieno[2,3-c]pyridin-3-yl)furo[2,3-c[pyridin-7-amine trifluoroacetate], the IC50 is reported as 1 to 10 µM.

For `COC(=O)c1cc2cccc(-c3cc4c(-c5cnn(C6CCNCC6)c5)cnc(N)c4o3)c2s1` [Example 48, methyl 7-{7-amino-4-[1-(piperidin-4-yl)-1H-pyrazol-4-yl]furo[2,3-c]pyridine-2-yl}-1-benzothiophene-2-carboxylate], the IC50 was 0.1 to 1 µM.

With `CC(=O)N1CCC(n2cc(-c3cnc(N)c4oc(-c5cccc(OCC(F)(F)F)c5)cc34)cn2)CC1` [Example 187, 1-[4-(4-{7-amino-2-[3-(2,2,2-trifluoroethoxy)phenyl]furo[2,3-c]pyridin-4-yl}-1H-pyrazol-1-yl)piperidin-1-yl]ethanone] the IC50 was 1 to 10 µM.

Work on `Nc1ncc(-c2cnn(C3CCNCC3)c2)c2cc(-c3cccc(C(F)(F)F)c3)oc12` [Example 6, 4-[1-(piperidin-4-yl)-1H-pyrazol-4-yl]-2-[3-(trifluoromethyl)phenyl]furo[2,3-c]pyridin-7-amine] yielded an IC50 of 1 to 10 µM.

In the case of `Cc1ccc(-c2cnc(N)c3oc(-c4csc5cnccc45)cc23)s1` [Example 386, 4-(5-methyl-thiophen-2-yl)-2-thieno[2,3-c]pyridin-3-yl-furo[2,3-c]pyridin-7-ylamine], the IC50 is reported as 1 to 10 µM.

For `Nc1ncc(-c2cnn(C3CCNCC3)c2)c2cc(-c3ccc4cc[nH]c4c3)oc12` [Example 29, 2-(1H-indol-6-yl)-4-[1-(piperidin-4-yl)-1H-pyrazol-4-yl]furo[2,3-c]pyridin-7-amine], the IC50 was 1 to 10 µM.

With `CN(C)S(=O)(=O)Nc1cccc(-c2cc3c(-c4cnn(C5CCNCC5)c4)cnc(N)c3o2)c1` [Example 24, N′-(3-{7-amino-4-[1-(piperidin-4-yl)-1H-pyrazol-4-yl]furo[2,3-c]pyridine-2-yl}phenyl)-N,N-dimethylsulfuric diamide] the IC50 was 1 to 10 µM.

With `CCC(=O)N1CCC(n2cc(-c3cnc(N)c4oc(-c5cccc6ccsc56)cc34)cn2)CC1` [Example 58, 1-(4-{4-[7-amino-2-(1-benzothiophen-7-yl)furo[2,3-c]pyridin-4-yl]-1H-pyrazol-1-yl}piperidin-1-yl)propan-1-one] the IC50 was 1 to 10 µM.

For `Cc1c(-c2ccc3[nH]ncc3c2)oc2c(N)ncc(-c3cnn(C4CCNCC4)c3)c12` [Example 11, 2-(1H-indazol-5-yl)-3-methyl-4-[1-(piperidin-4-yl)-1H-pyrazol-4-yl]furo[2,3-c]pyridin-7-amine hydrochloride], the IC50 was 1 to 10 µM.
